In the supplement of paper PMC10307832:

What was measured:
Experiment in all cases: relative viability (nuclei count vs DMSO), 5 days (fraction); higher = more cells survive
Zebularine + Alpelisib = compound: O=c1ncccn1[C@@H]1O[C@H](CO)[C@@H](O)[C@H]1O [Zebularine] + Cc1nc(NC(=O)N2CCC[C@H]2C(N)=O)sc1-c1ccnc(C(C)(C)C(F)(F)F)c1 [Alpelisib] (partner 2 µM)
In short: (§1)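 A single step with final 0.05% Triton X-100, 1% formaldehyde and 1 ug/ml Hoechst fixed the cells and stained nuclei 5 days after treatment. Lung cancer cell lines in 1536-well plates had been treated by pin tool the day after seeding with one drug alone or a fixed anchor-drug dose plus five library-drug doses (not always all listed) in √10 steps, and nuclei were counted on 4× images. Relative viability is the ratio of nuclei in treated wells to nuclei in vehicle wells, taken as the median of duplicate plates.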

Zebularine + Tozasertib = compound: O=c1ncccn1[C@@H]1O[C@H](CO)[C@@H](O)[C@H]1O [Zebularine] + Cc1cc(Nc2cc(N3CCN(C)CC3)nc(Sc3ccc(NC(=O)C4CC4)cc3)n2)n[nH]1 [Tozasertib] (partner 0.1 µM)
In short: as §1

Zebularine + Palbociclib = compound: O=c1ncccn1[C@@H]1O[C@H](CO)[C@@H](O)[C@H]1O [Zebularine] + CC(=O)c1c(C)c2cnc(Nc3ccc(N4CCNCC4)cn3)nc2n(C2CCCC2)c1=O [Palbociclib] (partner 0.5 µM)
In short: as §1

Zebularine + Phenformin = compound: O=c1ncccn1[C@@H]1O[C@H](CO)[C@@H](O)[C@H]1O [Zebularine] + N=C(N)NC(=N)NCCc1ccccc1 [Phenformin] (partner 250 µM)
In short: as §1

Cell Line	relative viability (Zebularine + Alpelisib; first compound 1 µM)	relative viability (Zebularine + Alpelisib; first compound 3.162 µM)	relative viability (Zebularine + Alpelisib; first compound 10 µM)	relative viability (Zebularine + Alpelisib; first compound 31.62 µM)	relative viability (Zebularine + Alpelisib; first compound 100 µM)	relative viability (Zebularine + Tozasertib; first compound 1 µM)	relative viability (Zebularine + Tozasertib; first compound 3.162 µM)	relative viability (Zebularine + Tozasertib; first compound 10 µM)	relative viability (Zebularine + Tozasertib; first compound 31.62 µM)	relative viability (Zebularine + Tozasertib; first compound 100 µM)	relative viability (Zebularine + Palbociclib; first compound 1 µM)	relative viability (Zebularine + Palbociclib; first compound 3.162 µM)	relative viability (Zebularine + Palbociclib; first compound 10 µM)	relative viability (Zebularine + Palbociclib; first compound 31.62 µM)	relative viability (Zebularine + Palbociclib; first compound 100 µM)	relative viability (Zebularine + Phenformin; first compound 1 µM)	relative viability (Zebularine + Phenformin; first compound 3.162 µM)	relative viability (Zebularine + Phenformin; first compound 10 µM)	relative viability (Zebularine + Phenformin; first compound 31.62 µM)	relative viability (Zebularine + Phenformin; first compound 100 µM)
NCI-H1755	1.07	1.03	0.538	0.92	0.61	0.639	0.531	0.512	0.663	0.488	0.496	0.455	0.45	0.474	0.415	0.671	0.612	0.592	0.684	0.53
NCI-H1793	0.812	0.7	0.391	0.357	0.193	0.401	0.354	–	0.206	0.174	0.364	0.309	0.214	0.186	0.221	0.4	0.39	–	0.237	0.168
NCI-H1915	1.18	1.05	0.984	1.05	0.93	0.558	0.44	–	0.533	0.385	0.523	0.525	0.485	0.541	0.352	0.373	0.381	–	0.379	0.349
NCI-H1944	0.858	0.906	0.629	0.805	0.688	0.274	0.268	0.213	0.254	0.234	0.309	0.353	0.339	0.36	0.329	0.226	0.188	0.174	0.19	0.146
NCI-H1975	0.705	0.555	0.4	0.354	0.233	1.11	0.684	0.412	0.293	0.23	0.818	0.596	0.291	0.317	0.259	0.416	0.417	0.229	0.221	0.148
NCI-H1993	0.666	0.76	–	0.68	0.699	0.593	0.582	0.53	0.614	0.573	0.726	0.704	0.615	0.633	0.695	0.556	0.477	0.534	0.449	0.548
NCI-H2009	1.18	1.13	0.97	0.947	0.392	0.891	0.737	0.497	0.659	0.297	0.249	0.229	0.234	0.198	0.197	0.515	0.483	0.425	0.435	0.336
NCI-H2023	0.697	0.551	0.533	0.53	0.287	0.462	0.319	0.242	0.283	0.169	0.361	0.375	0.235	0.322	0.245	0.475	0.443	0.213	0.23	0.208
NCI-H2085	1.04	0.977	0.802	0.96	0.535	0.9	0.804	0.688	0.609	0.529	0.451	0.47	0.509	0.552	0.394	0.761	0.663	0.566	0.673	0.539
NCI-H2087	1.31	1.01	0.684	0.778	0.309	0.255	0.338	0.215	0.225	0.155	0.275	0.207	0.243	0.218	0.185	0.524	0.448	0.272	0.385	0.352
NCI-H2126	0.783	0.694	0.764	0.687	0.437	0.911	0.807	0.727	0.791	0.479	0.363	0.342	0.386	0.377	0.318	0.579	0.473	0.445	0.494	0.435
NCI-H2170	0.85	0.84	0.543	0.684	0.507	0.815	0.708	0.655	0.636	0.285	0.415	0.351	0.366	0.404	0.283	0.422	0.424	0.376	0.41	0.243
NCI-H2228	0.782	0.615	0.632	0.693	0.374	0.289	0.168	0.229	0.246	0.195	0.861	0.637	–	0.552	0.216	0.313	0.313	0.182	0.323	0.221
NCI-H2347	1.02	0.867	0.686	0.694	0.474	0.632	0.482	0.51	0.405	0.309	0.471	0.411	0.414	0.471	0.338	0.583	0.38	0.297	0.233	0.293
NCI-H2405	0.749	0.749	0.726	0.769	0.568	0.758	0.81	0.704	0.724	0.485	0.524	0.533	0.478	0.509	0.435	0.425	0.378	0.352	0.435	0.335
NCI-H3122	0.991	0.822	0.573	0.871	0.703	0.391	0.401	0.262	0.626	0.375	0.204	0.185	0.173	0.195	0.19	0.434	0.389	0.332	0.385	0.352
